From patent publication US20070203248A1, “Cardioprotective agents” (DABUR RESEARCH FOUNDATION., priority 2003, published 2007)
Values joined by “and” are separate entries in the source; they are usually repeats but may differ in a detail not shown here. Equal values may be shown once. Read-outs that look alike come from different tables or passages of the source.

What was measured:
[1] = DPPH free radical scavenging assay in vitro; format: biochemical; details: for Mean percent Radical scavenging: DPPH, 5 minutes
Protocol: The free radical scavenging potential of 5-Methoxytryptamine was evaluated by the 1,1 diphenyl-2 picryl hydrazyl (DPPH) assay as described (Hycon, Lee et al, Arch. Pharm. Res. 19 (3), 223-227). […] 5-Methoxytryptamine was dissolved in 3.5% ethanol in normal saline and screened for its radical scavenging activity in concentration ranging from 1-1000 ug/ml. 100 ul of 0.2 mM DPPH was incubated with 100 ul of varying concentrations of 5-Methoxy tryptamine in 96 well tissue culture plates for 20 seconds at room temperature. All experiments were carried out in triplicates. 3.5% ethanol in normal saline was similarly incubated with 0.2 mM DPPH in control experiments for evaluating the effect of the vehicle on radical scavenging. The change in absorbance of DPPH incubated with varying concentrations of 5-Methoxy tryptamine of the vehicle was read at 517 nm for every 60 secs for 5 minutes. The absorbance of 0.2 mM DPPH taken after incubating for 5 minutes at room temperature was the blank O.D. The percent free radical scavenging ability of 5-Methoxy tryptamine was calculated as defined below. Percent Free Radical scavenging=Blank OD at 5 minutes−Sample OD at 5 minutes×100/Blank OD at 5 minutes

human tumour cell lines = assay: MTT cytotoxicity assay, effect of 5-Methoxytryptamine on anticancer activity of Adriamycin; format: cell-based; details: 5-Methoxytryptamine at its highest concentration 1 ug/ml; MCF7, DU145, MiaPaCa2, HT 29
Protocol: Adriamycin was dissolved in saline immediately before use. […] 1 ug/ml.

[2] = tested on: Adriamycin treated rat myocardium; details: for LP (lipid peroxidation), myocardium: 24 hours
From the text: The effect of 5-Methoxytryptamine on lipid peroxidation in Adriamycin treated myocardial tissue was quantitated by Thiobarbituric acid reactive substances based assay as described (Uchiyama and Mihara, M., Anal. Biochem. 86, 271-278, 1978). Briefly male Wistar rats of the age group 5-6 weeks were maintained on normal rat pellets ad libitum. Rats were divided into four groups viz Groups I, II, III and IV.
Group II, Animals treated with Adriamycin
(§1) Group III: Animals treated with 5-Methoxytryptamine and Adriamycin.
(§2) Group IV: Animals treated with 5 Methoxytryptamine
Each group consisted of 5 animals. 30 mg/kg body weight of Adriamycin was administered intraperitoneally to animals in Groups II and III. The animals comprising group III, were injected intraperitoneally with 5-Methoxytryptamine in concentration ranging from 8.5-35 mg/kg body weight 30 minutes prior to the Adriamycin treatment. The animals comprising group IV, were injected intraperitoneally with 5-Methoxytryptamine in concentration ranging from 8.5-35 mg/kg body weight. 24 hours later, the beating hearts of the animals were excised by decapitation. The heart tissue was washed in ice cold saline twice, weighed and snap frozen at −70° C. for assaying for Lipid peroxidation.
Briefly 200 mg of the live rat myocardial tissue was excised and homogenized in 2 ml of ice cold 10% Trichloro acetic acid buffer (TCA) buffer. To 200 ul of the homogenate thus obtained, 200 ul of 8.1% SDS, 1.5 ml of 20% Acetic acid, 1.5 ml of 0.8% of Thiobarbituric acid (TBA) and 1.0 ml of water was added in glass test tubes. The tubes were heated at 95° C. for 60 minutes. The mixture was cooled and diluted with 1 ml of double distilled water. A mixture of n-butanol and pyridine was prepared fresh in the ratio of 15:1 respectively. 5 ml of the n-butanol-pyridine mix was added to each tube containing the cardiac tissue homogenates. The tubes were centrifuged at 3000 rpm for 10 minutes at 4° C. 200 ul of the coloured liquid was collected from at the interphase of the aqueous and organic layers and the absorbance was measured spectrophotometrically at 532 nm. The control experiments contained only the TCA buffer treated similarly. The standard tubes contained Malonaldehyde in concentrations ranging from 2.5-25 uM. Malonaldehyde was dissolved in double distilled water. All experiments were carried out in triplicates. The extent of lipid peroxidation in the cardiac homogenates was expressed as uM/gm of the cardiac tissue. The extent of lipid peroxidation was calculated for the cardiac tissues of the animals comprising Groups I, II, III and IV.

[3] = tested on: Adriamycin treated rat myocardium; details: for SOD (Superoxide Dismutase), myocardium: 24 hours
Protocol: (§3) Briefly male Wistar rats of the age group 5-6 weeks were maintained on normal rat pellets ad libitum. Rats were divided into four groups viz. Groups I, II, III and IV.
(§4) Group II: Animals treated with Adriamycin
Each group consisted of 5 animals. 30 mg/kg body weight of Adriamycin was administered intraperitoneally to animals in Groups II and III. […] 24 hours later, the beating hearts of the animals were excised by decapitation. The heart tissue was washed in ice cold saline twice, weighed and frozen for assaying Superoxide Dismutase activity.
Briefly, 200 mg of rat myocardial tissue was excised and homogenized in 2 ml of ice cold Tris sucrose buffer (pH 7.4). The homogenate was centrifuged at 10000 rpm, at 4° C. for 10 minutes, and the supernatent carefully aspirated and collected. For each experiment, 1.2 ml of sodium pyrophosphate buffer was taken in clean glass tubes. To this 100 ul of 186 uM Phenazine methosulphate solution, 300 ul of a 300 uM solution of Nitroblue tetrazolium and 600 ul of double distilled water was added and mixed well. 600 ul of the supernatent obtained earlier was added per tube. A solution of NADH of the concentration 780 uM was freshly prepared for the experiments. The reaction in the tubes was initiated by the addition of 200 ul of a 780 uM solution of NADH per tube. The tubes were incubated for 90 seconds at room temperature. The reaction was stopped by the addition of 1 ml of 100% glacial acetic acid per tube and the absorbance measured spectrophotometrically at 560 nM. All experiments were carried out in triplicates. The control experiments contained only ice cold Tris Sucrose buffer (pH 7.4) treated identically. The standard tubes contained the enzyme Superoxide Dimutase dissolved in double distilled water in concentrations ranging from 0.1 U to 20 Units treated identically as above. The enzyme activity in the tissue homogenates was quantitated by rate of decrease in optical density at 560 nm, and expressed as units/mg protein. The Superoxide Dismutase activity was calculated for the cardiac tissues of the animals comprising Groups I, II, III and IV.

[4] = tested on: Adriamycin treated rat liver tissue; details: for LP (lipid peroxidation), liver: 24 hours
Protocol: as §3, §4, §1
Group IV: Animals treated with 5-Methoxytryptamine
Each group consisted of 5 animals. 30 mg/kg body weight of Adriamycin was administered intraperitoneally to animals in Groups II and III. The animals comprising group III, were injected intraperitoneally with 5-Methoxytryptamine in concentrations ranging from 8.5-35 mg/kg body weight 30 minutes prior to the Adriamycin treatment. The animals comprising group IV, were injected intraperitoneally with 5-Methoxytryptamine in concentrations ranging from 8.5-35 mg/kg body weight. 24 hours later, the liver tissue of the animals were excised. The liver tissue was washed in ice cold saline twice, weighed and snap frozen at −70° C. for assaying for Lipid peroxidation.
Briefly 200 mg of the rat liver tissue was excised and homogenized in 2 ml of ice cold 10% Trichloro acetic acid buffer (TCA) buffer. To 200 ul of the homogenate thus obtained, 200 ul of 8.1% SDS, 1.5 ml of 20% Acetic acid, 1.5 ml of 0.8% of Thiobarbituric acid (TBA) and 1.0 ml of water was added in glass test tubes. The tubes were heated at 95° C. for 60 minutes. The mixture was cooled and diluted with 1 ml of double distilled water. A mixture of n-butanol and pyridine was prepared fresh in the ratio of 15:1 respectively. 5 ml of the n-butanol-pyridine mix was added to each tube containing the liver tissue homogenates. The tubes were centrifuged at 3000 rpm for 10 minutes at 4° C. 200 ul of the colored liquid was collected from the interphase of the aqueous and organic layers and the absorbance was measured spectrophotometrically at 532 nm. The control experiments contained only the TCA buffer treated similarly. The standard tubes contained Malonaldehyde in concentrations ranging from 2.5-25 uM. Malonaldehyde was dissolved in double distilled water. All experiments were carried out in triplicates. The extent of lipid peroxidation in the liver homogenates was expressed as uM/gm of the liver tissue. The extent of lipid peroxidation was calculated for the liver tissues of the animals comprising Groups I, II, III and IV.

[5] = tested on: Adriamycin treated animals
Protocol: The effect of 5-Methoxy tryptamine on circulating CK-MB levels was quantitated as described. Briefly male Wistar rats of the age group 5-6 weeks were maintained on normal rat pellets ad libidum. Rats were divided into four groups viz. Groups I, II, III and IV.
as §4
(§5) Group III: Animals treated with Adriamycin and 5-Methoxytryptamine
Group IV: Animals treated with 5-Methoxytryptamine.
Each group consisted of 6 animals. 5 mg/kg of Adriamycin was administered intraperitoneally to animals of groups II and III as two equal divided doses once every seven days. The animals comprising Group III were injected intraperitoneally with 17.5 mg/kg of 5-Methoxytryptamine, as seven equal doses given every alternate day. The animals of the group III were injected with 5-Methoxytryptamine, 30 minutes prior to the Adriamycin injection. The animals comprising Group IV were treated with 17.5 mg/kg of 5-Methoxytryptamine as seven equal doses, given every alternate day. At the 41st day of the study, blood was collected from the retroorbital vein of all the animals in the study. The blood was kept at room temperature for 15 minutes, and spun at 3000 rpm for 15 minutes. […] The quantitation was carried out by kits procured from Bayer Diagnostics using RA 50 Chemistry Analyzer (Bayer Diagnostics), as per the manufacturers instructions.

[6] = tested on: Adriamycin treated animals; remark: listed apart in the source
Protocol: The effect of 5-Methoxytryptamine on circulating LDH levels was quantitated as described. Briefly male Wistar rats of the age group 5-6 weeks were maintained on normal rat pellets ad libidum. Rats were divided into four groups viz. Groups I, II, III and IV.
as §4, §5, §2
Each group consisted of 6 animals. 5 mg/kg of Adriamycin was administered intraperitoneally to animals of groups II and III as two equal divided doses once every seven days. The animals comprising Group III were injected intraperitoneally with 17.5 mg/kg of 5-Methoxytryptamine, as seven equal doses given every alternate day. The animals of the group III were injected with 5-Methoxytryptamine, 30 minutes prior to the Adriamycin injection. The animals comprising Group IV were treated with 17.5 mg/kg of 5-Methoxytryptamine as seven equal doses, given every alternate day. At the 41st day of the study, blood was collected from the retroorbital vein of all the animals in the study. The blood was kept at room temperature for 15 minutes, and spun at 3000 rpm for 15 minutes. […] The quantitation was carried out by kits procured from Bayer Diagnostics using RA 50 Chemistry Analyzer (Bayer Diagnostics), as per the manufacturer's instructions.

[7] = 8.5-35 mg/kg, 30 mg/kg doxorubicin
[8] = Group IV A: 5 MT 8.5 mg/kg i.p. alone
[9] = Group IV B: 5 MT 17 mg/kg i.p. alone
[10] = Group IV C: 5 MT 35 mg/kg i.p. alone
[11] = Group IV: 5-Methoxytryptamine 17.5 mg/kg as seven doses every alternate day, alone, serum, day 41

Compound: COc1ccc2[nH]cc(CCN)c2c1 [5-Methoxytryptamine]
- Mean percent Radical scavenging ([1]; 31 ug/ml): 10 ± 4.3%
- Mean percent Radical scavenging ([1]; 62.5 ug/ml): 25 ± 5.0%
- Mean percent Radical scavenging ([1]; 125 ug/ml): 75.4 ± 5.5%
- Mean percent Radical scavenging ([1]; 250 ug/ml): 85.24 ± 4.8%
- Mean percent Radical scavenging ([1]; 500 ug/ml): 87.4 ± 5.0%
- Mean percent Radical scavenging ([1]; 1000 ug/ml): 88.25% and 88.25 ± 5.1%
- Concentration range in which free radicals are scavenged ([1]; DPPH in vitro): 31 to 1000 µg/mL
- Effect of addition on ED50 values of the cytotoxicity of Adriamycin (human tumour cell lines): is not altered
- Effect on lipid peroxidation in rat myocardial tissue, alone ([2]; 8.5-35 mg/kg alone): did not alter the lipid peroxidation
- Effect on lipid peroxidation in rat myocardial tissue treated with doxorubicin [2, 7]: inhibits the lipid peroxidation
- LP (lipid peroxidation), myocardium [2, 8]: 535 ± 12.5 µmol/g
- LP (lipid peroxidation), myocardium [2, 9]: 500 ± 14.5 µmol/g
- LP (lipid peroxidation), myocardium [2, 10]: 513 ± 12.3 µmol/g
- Effect on Superoxide Dismutase activity in rat myocardium, alone ([3]; 8.5-35 mg/kg alone): did not alter the Superoxide Dismutase activity
- Effect on Superoxide Dismutase activity in rat myocardium treated with Doxorubicin [3, 7]: increases the Superoxide Dismutase activity
- SOD (Superoxide Dismutase), myocardium [3, 8]: 32 ± 2.5 U/mg
- SOD (Superoxide Dismutase), myocardium [3, 9]: 30 ± 2.9 U/mg
- SOD (Superoxide Dismutase), myocardium [3, 10]: 34 ± 4.5 U/mg
- Effect on lipid peroxidation in rat liver tissue, alone ([4]; 8.5-35 mg/kg alone): does not alter the lipid peroxidation
- LP (lipid peroxidation), liver [4, 8]: 601 ± 16.5 µmol/g
- LP (lipid peroxidation), liver [4, 9]: 625 ± 15.5 µmol/g
- LP (lipid peroxidation), liver [4, 10]: 630 ± 16.3 µmol/g
- Effect on CK-MB levels in Adriamycin treated animals ([5]; 17.5 mg/kg, Adriamycin 5 mg/kg): reduces the CK-MB levels
- CK - MB [5, 11]: 379 ± 26 U/L
- Effect on LDH levels in Adriamycin treated animals ([6]; 17.5 mg/kg, Adriamycin 5 mg/kg): reduces the LDH levels
- LDH [6, 11]: 1009 ± 26 U/L
